These are literature values, as cited in patent US9522161B2, “Performance enhancing composition and method of delivering nutrients” (Advanced Bio Development, Inc., priority 2010, dated 2016).

The conditions of series [1]: taken orally.
For series [2] the following is noted: pilot studies and human trials.
Assay in series [3]: not given
The source holds these as a separate data set.

Assay in series [4]: not given
This is another data set of the same source.

Series [5] has as its system mice that have a hypoinsulinemic type of diabetes. The following applies: mice with hypoinsulinemic type of diabetes.
Series [6] relates to muscle cells.
Series [7] deals with muscle. The following applies: ribose supplementation in rats, depending on muscle fiber type.
For series [8] the following is noted: humans, chronic high-intensity exercise, ribose supplementation.
The conditions of series [9]: consumed orally, within two hours.
Assay in series [10]: not given
This is another data set of the same source.

Each structure is given as a SMILES string. “Also recorded” adds a separate entry of the source.

As for `Nc1ncnc2c1ncn2[C@@H]1O[C@H](COP(=O)(O)OP(=O)([O-])OP(=O)([O-])O)[C@@H](O)[C@H]1O.[Na+].[Na+]` [ATP disodium, adenosine triphosphate (ATP) disodium], the “duration of measurable increase in circulating ATP levels” value in [1] was “at least six”. Further, the adverse side effects entry in [2] is given as “no adverse side effects have been observed”.

As to `Cn1c(=O)c2c(ncn2C)n(C)c1=O` [Caffeine], the “time until elevated levels appear in the bloodstream” value (after consumption) is 15 to 45 min. Further, the “time of peak concentrations post ingestion” value (post ingestion) was “one”. Besides, where the note is “within three to six hours of consumption”, the “decrease of circulating concentrations” value is listed as 50 to 75%.

With `COC1=C(OC)C(=O)C(C/C=C(\C)CC/C=C(\C)CC/C=C(\C)CC/C=C(\C)CC/C=C(\C)CC/C=C(\C)CC/C=C(\C)CC/C=C(\C)CC/C=C(\C)CCC=C(C)C)=C(C)C1=O` [CoQ10, Coenzyme Q10], the “increase in plasma concentrations” value in [3] (dosages of 90 to 150 mg/day) was 180%. Further, the “uptake of CoQ10 into the blood, share of the dose administered” value in series [3] (in vivo) was 5 to 10%. The “safety in cardiovascular-related clinical trials” value in series [4] (2,152 patients, 100 to 200 mg per day) is given as “safe, without any reports of toxicity or drug interactions”. Further, the “share of users with gastrointestinal side effects” value in series [4] (nausea, vomiting, diarrhea, appetite suppression, heartburn, epigastric discomfort) is listed as “Less than one”. For the same molecule, the “dosing level shown to be safe and well tolerated” value in series [4] (over 8 months) is ≤ 3,000 mg per day.

`CO[C@H]1[C@H](O)[C@@H](O)[C@@H](O)[C@H](O)[C@@H]1O` [D-pinitol]: the insulin-like effect result in series [5] is “acute and chronic insulin-like effect”.

As to `CO[C@H]1[C@H](O)[C@@H](O)[C@@H](O)[C@H](O)[C@@H]1O` [Pinitol], the “stimulation of glucose uptake in muscle cells” value in series [6] was 25-80%.

For the molecule `O=C[C@H](O)[C@H](O)[C@H](O)CO` [Ribose], in series [7], the “increase in hypoxanthine salvage” value is “six- to eight-fold” and the “increase in nucleotide salvage” value is on record as “three- to six-fold”. Further, the “time to return TAN and ATP levels to baseline” value in [8] was 65 to 72 h. Also, the “fraction of ribose absorbed in the intestines” value in [9] is 88-100%. In addition, in [10] (doses of 10 grams or more on an empty stomach), the known side effects result was “transient hypoglycemia; also recorded: gastrointestinal discomfort, including loose stools and diarrhea”. For the same molecule, the “ribose level that can be safely ingested” value in series [10] (in vivo) was at most 15 g per day.
